Measurements as given in paper PMC6199309, “A therapeutic approach to pantothenate kinase associated neurodegeneration” (Nature Communications, 2018).

Tests used:
Assay type in all cases: binding
[1] = molecular target: T1, RIPK1 (Homo sapiens, UniProt Q13546); assay: KINOMEscan; settings: read-out: %Ctrl @ 10000nM
T1 construct: purchased DiscoverX KINOMEscan

[2] = molecular target: T2, IRAK4 (Homo sapiens, UniProt Q9NWZ3); assay: KINOMEscan; settings: read-out: %Ctrl @ 10000nM
T2 construct: purchased DiscoverX KINOMEscan
T2 sequence (Q9NWZ3 whole entry): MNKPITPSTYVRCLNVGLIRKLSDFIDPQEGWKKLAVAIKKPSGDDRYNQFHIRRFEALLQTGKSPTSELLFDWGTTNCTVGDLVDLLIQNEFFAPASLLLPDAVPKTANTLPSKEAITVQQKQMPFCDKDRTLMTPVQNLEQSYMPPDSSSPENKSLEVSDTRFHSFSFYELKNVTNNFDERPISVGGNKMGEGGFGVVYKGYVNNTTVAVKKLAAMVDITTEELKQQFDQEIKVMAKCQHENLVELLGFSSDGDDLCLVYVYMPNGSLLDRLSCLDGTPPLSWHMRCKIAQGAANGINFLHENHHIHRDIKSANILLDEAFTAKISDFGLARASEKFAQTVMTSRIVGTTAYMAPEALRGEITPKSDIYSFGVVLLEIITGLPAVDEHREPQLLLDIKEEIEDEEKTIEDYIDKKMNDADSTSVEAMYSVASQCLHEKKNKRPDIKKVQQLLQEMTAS

[3] = molecular target: T3, PRKG2 (Homo sapiens, UniProt Q13237); assay: KINOMEscan; settings: read-out: %Ctrl @ 10000nM
T3 construct: purchased DiscoverX KINOMEscan

[4] = molecular target: T4, MTOR (Homo sapiens, UniProt P42345); assay: KINOMEscan; settings: read-out: %Ctrl @ 10000nM
T4 construct: purchased DiscoverX KINOMEscan

[5] = molecular target: T5, KIT(D816V) (Homo sapiens, UniProt P10721, D816V); assay: KINOMEscan; settings: read-out: %Ctrl @ 10000nM
T5 construct: purchased DiscoverX KINOMEscan
T5 sequence (P10721 26-976 D816V): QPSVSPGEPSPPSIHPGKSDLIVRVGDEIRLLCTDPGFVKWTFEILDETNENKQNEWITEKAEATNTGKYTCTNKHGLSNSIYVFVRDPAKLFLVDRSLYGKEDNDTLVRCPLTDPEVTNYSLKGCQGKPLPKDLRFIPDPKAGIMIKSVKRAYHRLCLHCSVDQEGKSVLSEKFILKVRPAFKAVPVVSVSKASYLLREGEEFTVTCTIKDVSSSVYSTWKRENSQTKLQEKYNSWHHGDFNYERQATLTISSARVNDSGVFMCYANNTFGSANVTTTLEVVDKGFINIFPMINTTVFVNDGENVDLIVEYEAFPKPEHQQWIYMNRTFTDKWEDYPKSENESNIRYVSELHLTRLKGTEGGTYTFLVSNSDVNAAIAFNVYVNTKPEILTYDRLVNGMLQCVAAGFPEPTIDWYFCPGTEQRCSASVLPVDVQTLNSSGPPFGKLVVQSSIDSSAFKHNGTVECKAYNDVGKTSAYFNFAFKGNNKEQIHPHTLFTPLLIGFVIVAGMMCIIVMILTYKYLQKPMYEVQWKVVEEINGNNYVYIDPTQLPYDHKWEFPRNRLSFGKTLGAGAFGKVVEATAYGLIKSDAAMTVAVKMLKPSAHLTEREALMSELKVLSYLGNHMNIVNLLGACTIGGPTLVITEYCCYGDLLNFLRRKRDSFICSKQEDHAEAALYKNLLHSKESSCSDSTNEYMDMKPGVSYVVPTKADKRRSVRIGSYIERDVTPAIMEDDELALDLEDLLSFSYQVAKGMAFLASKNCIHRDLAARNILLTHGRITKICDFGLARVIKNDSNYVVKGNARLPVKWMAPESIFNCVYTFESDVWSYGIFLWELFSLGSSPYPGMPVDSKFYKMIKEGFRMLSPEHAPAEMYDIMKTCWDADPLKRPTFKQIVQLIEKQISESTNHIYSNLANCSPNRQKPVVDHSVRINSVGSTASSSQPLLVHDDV

[6] = molecular target: T6, NEK10 (Homo sapiens, UniProt Q6ZWH5); assay: KINOMEscan; settings: read-out: %Ctrl @ 10000nM
T6 construct: purchased DiscoverX KINOMEscan

[7] = molecular target: T7, GRK3 (Homo sapiens, UniProt P35626); assay: KINOMEscan KdELECT
T7 construct: DNA tag for qPCR (T7 phage fusion or DNA label); purchased DiscoverX KdELECT; host or cells: E. coli BL21-derived (T7 phage) or HEK-293
T7 sequence (P35626 whole entry, the tested form may be a part): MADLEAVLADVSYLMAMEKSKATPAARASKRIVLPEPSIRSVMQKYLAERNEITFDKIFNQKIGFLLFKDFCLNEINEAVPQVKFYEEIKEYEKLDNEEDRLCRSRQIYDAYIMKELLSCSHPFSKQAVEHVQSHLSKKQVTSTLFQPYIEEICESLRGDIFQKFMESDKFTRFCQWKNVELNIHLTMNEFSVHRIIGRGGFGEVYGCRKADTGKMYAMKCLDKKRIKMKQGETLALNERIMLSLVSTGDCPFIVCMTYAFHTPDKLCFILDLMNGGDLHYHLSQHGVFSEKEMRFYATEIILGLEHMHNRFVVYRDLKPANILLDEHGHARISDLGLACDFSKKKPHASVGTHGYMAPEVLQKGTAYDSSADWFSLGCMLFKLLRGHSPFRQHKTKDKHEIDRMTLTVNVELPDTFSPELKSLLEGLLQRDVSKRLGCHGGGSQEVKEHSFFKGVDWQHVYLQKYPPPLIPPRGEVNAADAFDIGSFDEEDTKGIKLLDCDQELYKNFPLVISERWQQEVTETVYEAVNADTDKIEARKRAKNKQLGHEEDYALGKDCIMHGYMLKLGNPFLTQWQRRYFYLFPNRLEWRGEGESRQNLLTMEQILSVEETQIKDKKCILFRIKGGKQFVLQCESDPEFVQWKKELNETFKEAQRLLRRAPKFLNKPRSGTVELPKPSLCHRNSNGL

[8] = molecular target: T8, ADCK3 (Homo sapiens, UniProt Q8NI60); assay: KINOMEscan; settings: read-out: %Ctrl @ 10000nM
T8 construct: purchased DiscoverX KINOMEscan

[9] = molecular target: T9, CSNK1G2 (Homo sapiens, UniProt P78368); assay: KINOMEscan; settings: read-out: %Ctrl @ 10000nM
T9 construct: purchased DiscoverX KINOMEscan

[10] = molecular target: T10, MYO3A (Homo sapiens, UniProt Q8NEV4); assay: KINOMEscan; settings: read-out: %Ctrl @ 10000nM
T10 construct: purchased DiscoverX KINOMEscan

[11] = molecular target: T11, AAK1 (Homo sapiens, UniProt Q2M2I8); assay: KINOMEscan; settings: read-out: %Ctrl @ 10000nM
T11 construct: purchased DiscoverX KINOMEscan

[12] = molecular target: T12, ERK2 (Homo sapiens, UniProt P28482); assay: KINOMEscan; settings: read-out: %Ctrl @ 10000nM
T12 construct: purchased DiscoverX KINOMEscan

[13] = molecular target: T7, GRK3; assay: KINOMEscan; settings: read-out: %Ctrl @ 10000nM
[14] = molecular target: T13, FRK (Homo sapiens, UniProt P42685); assay: KINOMEscan; settings: read-out: %Ctrl @ 10000nM
T13 construct: purchased DiscoverX KINOMEscan

[15] = molecular target: T14, WNK1 (Homo sapiens, UniProt Q9H4A3); assay: KINOMEscan; settings: read-out: %Ctrl @ 10000nM
T14 construct: DNA label for qPCR (T7 phage fusion or DNA tag); purchased DiscoverX scanMAX; host or cells: E. coli BL21-derived (T7 phage) or HEK-293

[16] = molecular target: T15, ULK2 (Homo sapiens, UniProt Q8IYT8); assay: KINOMEscan; settings: read-out: %Ctrl @ 10000nM
T15 construct: DNA label for qPCR (T7 phage fusion or DNA tag); purchased DiscoverX scanMAX; host or cells: E. coli BL21-derived (T7 phage) or HEK-293

[17] = molecular target: T16, AURKA (Homo sapiens, UniProt O14965); assay: KINOMEscan; settings: read-out: %Ctrl @ 10000nM
T16 construct: purchased DiscoverX KINOMEscan
T16 sequence (O14965 whole entry): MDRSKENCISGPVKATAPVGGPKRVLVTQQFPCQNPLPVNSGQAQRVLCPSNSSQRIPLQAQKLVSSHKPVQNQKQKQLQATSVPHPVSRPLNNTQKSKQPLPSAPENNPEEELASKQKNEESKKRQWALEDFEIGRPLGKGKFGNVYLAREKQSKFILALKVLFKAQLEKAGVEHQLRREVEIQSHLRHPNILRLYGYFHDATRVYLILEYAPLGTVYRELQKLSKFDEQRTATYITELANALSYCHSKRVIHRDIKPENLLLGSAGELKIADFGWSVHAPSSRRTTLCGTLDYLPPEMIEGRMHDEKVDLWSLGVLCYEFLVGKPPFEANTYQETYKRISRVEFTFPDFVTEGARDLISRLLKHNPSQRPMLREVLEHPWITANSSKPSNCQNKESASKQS

[18] = molecular target: T17, PRKCE (Homo sapiens, UniProt Q02156); assay: KINOMEscan; settings: read-out: %Ctrl @ 10000nM
T17 construct: purchased DiscoverX KINOMEscan

[19] = molecular target: T18, KIT(A829P) (Homo sapiens, UniProt P10721, A829P); assay: KINOMEscan; settings: read-out: %Ctrl @ 10000nM
T18 construct: purchased DiscoverX KINOMEscan
T18 sequence (P10721 26-976 A829P): as the sequence (P10721 26-976 D816V) above, with V791D, A804P counted along it

[20] = molecular target: T19, PDGFRB (Homo sapiens, UniProt P09619); assay: KINOMEscan; settings: read-out: %Ctrl @ 10000nM
T19 construct: purchased DiscoverX KINOMEscan
T19 sequence (P09619 33-1106): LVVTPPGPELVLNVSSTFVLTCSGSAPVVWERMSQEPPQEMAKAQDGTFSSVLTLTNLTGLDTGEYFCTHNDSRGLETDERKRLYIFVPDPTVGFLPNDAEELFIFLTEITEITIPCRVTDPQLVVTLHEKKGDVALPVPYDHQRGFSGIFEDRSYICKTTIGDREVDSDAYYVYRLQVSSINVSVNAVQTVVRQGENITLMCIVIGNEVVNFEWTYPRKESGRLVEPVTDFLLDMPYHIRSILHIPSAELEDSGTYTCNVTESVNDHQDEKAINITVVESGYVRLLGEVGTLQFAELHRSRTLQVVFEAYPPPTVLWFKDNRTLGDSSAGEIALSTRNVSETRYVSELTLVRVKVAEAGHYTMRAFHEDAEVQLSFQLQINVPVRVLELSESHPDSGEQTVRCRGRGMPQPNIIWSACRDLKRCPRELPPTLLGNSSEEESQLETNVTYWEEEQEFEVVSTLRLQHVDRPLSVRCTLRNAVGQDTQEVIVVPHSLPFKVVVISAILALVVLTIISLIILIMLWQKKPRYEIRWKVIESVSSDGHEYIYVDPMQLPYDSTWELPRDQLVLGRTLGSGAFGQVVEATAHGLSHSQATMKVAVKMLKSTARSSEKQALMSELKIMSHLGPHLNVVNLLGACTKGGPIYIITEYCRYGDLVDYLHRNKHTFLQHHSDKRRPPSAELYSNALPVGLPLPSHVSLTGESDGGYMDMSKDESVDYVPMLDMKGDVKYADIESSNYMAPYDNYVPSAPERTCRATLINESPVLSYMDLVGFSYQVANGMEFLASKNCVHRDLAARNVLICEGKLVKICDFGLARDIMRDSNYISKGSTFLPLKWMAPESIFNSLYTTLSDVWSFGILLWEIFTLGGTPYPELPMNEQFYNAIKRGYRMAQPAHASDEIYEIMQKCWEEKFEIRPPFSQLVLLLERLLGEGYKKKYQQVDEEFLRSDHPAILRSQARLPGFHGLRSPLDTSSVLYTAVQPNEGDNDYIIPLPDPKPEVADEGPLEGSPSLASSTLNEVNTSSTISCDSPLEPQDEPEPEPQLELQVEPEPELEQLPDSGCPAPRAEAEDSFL

[21] = molecular target: T20, ERK1 (Homo sapiens, UniProt P27361); assay: KINOMEscan; settings: read-out: %Ctrl @ 10000nM
T20 construct: purchased DiscoverX KINOMEscan

[22] = molecular target: T21, ABL1(F317I)-nonphosphorylated (Homo sapiens, UniProt P00519, F317I); assay: KINOMEscan; settings: read-out: %Ctrl @ 10000nM
T21 construct: purchased DiscoverX KINOMEscan

[23] = molecular target: T22, CDKL1 (Homo sapiens, UniProt Q00532); assay: KINOMEscan; settings: read-out: %Ctrl @ 10000nM
T22 construct: purchased DiscoverX KINOMEscan

[24] = molecular target: T23, ACVRL1 (Homo sapiens, UniProt P37023); assay: KINOMEscan; settings: read-out: %Ctrl @ 10000nM
T23 construct: purchased DiscoverX KINOMEscan
T23 sequence (P37023 22-503): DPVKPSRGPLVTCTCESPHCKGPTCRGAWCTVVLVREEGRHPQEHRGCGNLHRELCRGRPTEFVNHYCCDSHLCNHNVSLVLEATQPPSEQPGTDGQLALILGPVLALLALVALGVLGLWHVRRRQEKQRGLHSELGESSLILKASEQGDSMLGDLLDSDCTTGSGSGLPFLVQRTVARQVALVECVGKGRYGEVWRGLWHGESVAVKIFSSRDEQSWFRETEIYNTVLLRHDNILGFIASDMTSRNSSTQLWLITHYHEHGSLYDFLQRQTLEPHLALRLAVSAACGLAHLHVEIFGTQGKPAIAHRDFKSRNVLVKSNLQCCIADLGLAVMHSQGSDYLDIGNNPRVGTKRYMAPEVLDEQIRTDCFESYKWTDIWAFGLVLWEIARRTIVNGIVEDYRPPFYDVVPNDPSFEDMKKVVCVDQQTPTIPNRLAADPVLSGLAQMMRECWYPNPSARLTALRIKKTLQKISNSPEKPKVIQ

[25] = molecular target: T24, STK16 (Homo sapiens, UniProt O75716); assay: KINOMEscan; settings: read-out: %Ctrl @ 10000nM
T24 construct: purchased DiscoverX KINOMEscan

[26] = molecular target: T25, PAK2 (Homo sapiens, UniProt Q13177); assay: KINOMEscan; settings: read-out: %Ctrl @ 10000nM
T25 construct: purchased DiscoverX KINOMEscan

[27] = molecular target: T26, PKN1 (Homo sapiens, UniProt Q16512); assay: KINOMEscan; settings: read-out: %Ctrl @ 10000nM
T26 construct: purchased DiscoverX KINOMEscan
T26 sequence (Q16512 whole entry): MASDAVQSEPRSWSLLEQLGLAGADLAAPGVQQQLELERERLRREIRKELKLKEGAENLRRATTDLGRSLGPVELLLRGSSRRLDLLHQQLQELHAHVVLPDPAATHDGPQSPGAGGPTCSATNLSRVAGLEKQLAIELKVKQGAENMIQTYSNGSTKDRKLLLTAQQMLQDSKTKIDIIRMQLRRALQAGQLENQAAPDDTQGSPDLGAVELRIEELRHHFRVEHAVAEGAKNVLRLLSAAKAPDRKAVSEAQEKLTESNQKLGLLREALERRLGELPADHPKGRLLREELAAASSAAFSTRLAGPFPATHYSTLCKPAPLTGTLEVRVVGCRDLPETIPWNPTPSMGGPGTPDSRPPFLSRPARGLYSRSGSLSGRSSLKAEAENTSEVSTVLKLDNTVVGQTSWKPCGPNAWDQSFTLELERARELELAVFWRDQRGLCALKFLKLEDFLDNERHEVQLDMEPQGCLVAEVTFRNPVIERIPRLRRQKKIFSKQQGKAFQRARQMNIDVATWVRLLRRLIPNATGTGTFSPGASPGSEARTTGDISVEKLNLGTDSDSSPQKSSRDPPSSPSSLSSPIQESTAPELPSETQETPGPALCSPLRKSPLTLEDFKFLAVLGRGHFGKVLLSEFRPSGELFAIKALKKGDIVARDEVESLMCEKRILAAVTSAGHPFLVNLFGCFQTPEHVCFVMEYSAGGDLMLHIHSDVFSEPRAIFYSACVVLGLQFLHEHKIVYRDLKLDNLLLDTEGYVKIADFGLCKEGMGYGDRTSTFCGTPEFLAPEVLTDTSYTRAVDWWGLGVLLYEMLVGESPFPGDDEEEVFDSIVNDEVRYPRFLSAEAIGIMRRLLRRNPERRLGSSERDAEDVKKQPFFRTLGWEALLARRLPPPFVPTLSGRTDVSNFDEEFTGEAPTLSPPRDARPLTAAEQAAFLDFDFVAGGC

[28] = molecular target: T27, ROCK1 (Homo sapiens, UniProt Q13464); assay: KINOMEscan; settings: read-out: %Ctrl @ 10000nM
T27 construct: purchased DiscoverX KINOMEscan

[29] = molecular target: T28, AKT1 (Homo sapiens, UniProt P31749); assay: KINOMEscan; settings: read-out: %Ctrl @ 10000nM
T28 construct: purchased DiscoverX KINOMEscan

[30] = molecular target: T29, LTK (Homo sapiens, UniProt P29376); assay: KINOMEscan; settings: read-out: %Ctrl @ 10000nM
T29 construct: purchased DiscoverX KINOMEscan

[31] = molecular target: T30, CLK3 (Homo sapiens, UniProt P49761); assay: KINOMEscan; settings: read-out: %Ctrl @ 10000nM
T30 construct: purchased DiscoverX KINOMEscan

[32] = molecular target: T31, HIPK3 (Homo sapiens, UniProt Q9H422); assay: KINOMEscan; settings: read-out: %Ctrl @ 10000nM
T31 construct: purchased DiscoverX KINOMEscan

[33] = molecular target: T32, MARK1 (Homo sapiens, UniProt Q9P0L2); assay: KINOMEscan; settings: read-out: %Ctrl @ 10000nM
T32 construct: purchased DiscoverX KINOMEscan

[34] = molecular target: T33, ABL1-nonphosphorylated (Homo sapiens, UniProt P00519); assay: KINOMEscan; settings: read-out: %Ctrl @ 10000nM
T33 construct: purchased DiscoverX KINOMEscan

[35] = molecular target: T34, MEK3 (Homo sapiens, UniProt P46734); assay: KINOMEscan; settings: read-out: %Ctrl @ 10000nM
T34 construct: purchased DiscoverX KINOMEscan

[36] = molecular target: T35, TAOK1 (Homo sapiens, UniProt Q7L7X3); assay: KINOMEscan; settings: read-out: %Ctrl @ 10000nM
T35 construct: purchased DiscoverX KINOMEscan

[37] = molecular target: T36, PIK3CD (Homo sapiens, UniProt O00329); assay: KINOMEscan; settings: read-out: %Ctrl @ 10000nM
T36 construct: purchased DiscoverX KINOMEscan

[38] = molecular target: T37, FAK (Homo sapiens, UniProt Q05397); assay: KINOMEscan; settings: read-out: %Ctrl @ 10000nM
T37 construct: purchased DiscoverX KINOMEscan

[39] = molecular target: T38, EPHA6 (Homo sapiens, UniProt Q9UF33); assay: KINOMEscan; settings: read-out: %Ctrl @ 10000nM
T38 construct: purchased DiscoverX KINOMEscan

[40] = molecular target: T39, ALK(C1156Y) (Homo sapiens, UniProt Q9UM73, C1156Y); assay: KINOMEscan; settings: read-out: %Ctrl @ 10000nM
T39 construct: purchased DiscoverX KINOMEscan

[41] = molecular target: T40, ULK1 (Homo sapiens, UniProt O75385); assay: KINOMEscan; settings: read-out: %Ctrl @ 10000nM
T40 construct: DNA label for qPCR (T7 phage fusion or DNA tag); purchased DiscoverX scanMAX; host or cells: E. coli BL21-derived (T7 phage) or HEK-293

[42] = molecular target: T41, PIK4CB (Homo sapiens, UniProt Q9UBF8); assay: KINOMEscan; settings: read-out: %Ctrl @ 10000nM
T41 construct: purchased DiscoverX KINOMEscan

Work on CC(C)c1ccc(CC(=O)N2CCN(c3ccc(C#N)nn3)CC2)cc1 [PZ-2891, 6-(4-(2-(4-isopropylphenyl)acetyl)piperazin-1-yl)pyridazine-3-carbonitrile] yielded a remaining binding at 10 µM [1] of 98%, a remaining binding at 10 µM [2] of 93% and a remaining binding at 10 µM [3] of 76%. It also gave a remaining binding at 10 µM [4] of 68%, a remaining binding at 10 µM [5] of 92% and a remaining binding at 10 µM [6] of 89%. It also gave a Kd [7] of over 30 µM, a remaining binding at 10 µM [8] of 100% and a remaining binding at 10 µM [9] of 62%. The remaining binding at 10 µM [10] was 68%, the remaining binding at 10 µM [11] was 84% and the remaining binding at 10 µM [12] was 86%. It also gave a remaining binding at 10 µM [13] of 35%, a remaining binding at 10 µM [14] of 86% and a remaining binding at 10 µM [15] of 100%. It also gave a remaining binding at 10 µM [16] of 86%, a remaining binding at 10 µM [17] of 75% and a remaining binding at 10 µM [18] of 70%. The remaining binding at 10 µM [19] was 91%, the remaining binding at 10 µM [20] was 75% and the remaining binding at 10 µM [21] was 91%. For the same compound, the remaining binding at 10 µM [22] was 77%, the remaining binding at 10 µM [23] was 74% and the remaining binding at 10 µM [24] was 100%. The remaining binding at 10 µM [25] was 98%, the remaining binding at 10 µM [26] was 44% and the remaining binding at 10 µM [27] was 69%. For the same compound, the remaining binding at 10 µM [28] was 100%, the remaining binding at 10 µM [29] was 98% and the remaining binding at 10 µM [30] was 75%. The remaining binding at 10 µM [31] was 93%, the remaining binding at 10 µM [32] was 81% and the remaining binding at 10 µM [33] was 77%. It also gave a remaining binding at 10 µM [34] of 65%, a remaining binding at 10 µM [35] of 61% and a remaining binding at 10 µM [36] of 93%. For the same compound, the remaining binding at 10 µM [37] was 89%, the remaining binding at 10 µM [38] was 89% and the remaining binding at 10 µM [39] was 89%. The remaining binding at 10 µM [40] was 74%, the remaining binding at 10 µM [41] was 82% and the remaining binding at 10 µM [42] was 84%.
